{"source": "patent US5578596A", "about": "“2-alkoxy-5,6,7,8-tetrahydroquinoxaline derivatives, and production method and use thereof” (Asahi Kasei Kogyo Kabushiki Kaisha, priority 1992, dated 1996)", "key": {"nicotine-induced emesis": {"tested_on": "nicotine-induced emesis", "assay": "Suppression of nicotine-induced emesis in suncus", "type": "in vivo", "conditions": "hydrochloride 3 mg/kg intraperitoneal, 30 min before nicotine 4 mg/kg s.c.", "description": "(§1) It has been known that cisplatin and nicotine have an emesis-inducing activity. In this test, it was investigated as to whether the hydrochloride of compound (1) of the present invention has the activity to suppress the occurrence of emeses which are induced by these drugs.\nOn the other hand, nicotine was subcutaneously administered to four suncuses (4 mg/kg). As a result, with respect to all of the suncuses, emesis was induced 11 to 29 times within 3 to 10 minutes after the administration of the nicotine."}, "[1]": {"biological_target": "T1, serotonin 1A (5HT1A) receptor (Rattus norvegicus, UniProt P19327)", "T1 construct": "The resultant precipitate was used as a rat hippocampal membrane fraction in the following procedures; from tissue; host or cells: hippocampal membrane fraction of male SD rat (7 weeks old; animals from Charles River)", "T1 sequence (P19327 1-422)": "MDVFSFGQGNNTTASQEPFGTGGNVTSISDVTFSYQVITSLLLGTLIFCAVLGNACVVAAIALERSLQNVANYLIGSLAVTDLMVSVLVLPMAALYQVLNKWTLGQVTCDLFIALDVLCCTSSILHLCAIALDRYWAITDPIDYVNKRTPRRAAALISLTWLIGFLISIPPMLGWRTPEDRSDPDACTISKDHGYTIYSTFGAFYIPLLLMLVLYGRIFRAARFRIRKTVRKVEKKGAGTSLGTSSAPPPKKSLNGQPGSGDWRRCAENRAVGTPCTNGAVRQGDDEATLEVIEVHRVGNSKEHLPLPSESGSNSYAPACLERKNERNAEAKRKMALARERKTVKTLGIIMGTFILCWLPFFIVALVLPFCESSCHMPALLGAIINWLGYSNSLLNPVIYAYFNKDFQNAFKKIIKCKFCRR", "assay": "Affinity for serotonin 1A (5HT1A) receptor: inhibition of 3H-8-OH-DPAT binding to rat hippocampal membrane fraction", "conditions": "test compound as hydrochloride", "description": "1. Affinity for serotonin 1A (5HT1A) receptor\n(A) Preparation of rat hippocampal membrane fraction\nA male SD strain rat (7-week old; Charles River) was decapitated, and brain was taken out therefrom quickly. 50 mM Tris-HCl buffer (pH 7.4) was added to the brain under ice cooling to obtain a suspension. The resultant suspension was homogenized, and then subjected to centrifugation at 48000 g for 15 minutes, to thereby obtain a precipitate. The precipitate was resuspended in the same Tris-HCl buffer as used above. The resultant suspension was incubated at 30° C. for 20 minutes to decompose endogenous serotonin of the rat hippocampal membrane, followed by centrifugation at 48000 g for 15 minutes to thereby obtain a precipitate. The resultant precipitate was used as a rat hippocampal membrane fraction in the following procedures.\n(B) Method for the evaluation of the binding ability of ^3 H-8-hydroxy-dipropylaminotetralin (^3 H-8-OH-DPAT) to serotonin 1A receptor\nThe rat hippocampal membrane fraction prepared in step (A) above (about 100 to 200 μg in terms of proteins) was reacted with 0.5 nM (final concentration) ^3 H-8-OH-DPAT (which is commercially available from DuPont-NEN Research Products) and 10 μM (final concentration) pargyline (which is commercially available from Sigma Chemical Company) at 30° C. for 30 minutes to effect a reaction. The resultant reaction mixture was subjected to suction filtration using a Whatman GF/C filter, to thereby terminate the reaction. The radio-activity of ^3 H-8-OH-DPAT adsorbed on the filter was determined using a liquid scintillation counter. The obtained value is regarded as a total amount (TB) of specifically binding ^3 H-8-OH-DPAT and non-specifically binding ^3 H-8-OH-DPAT.\nOn the other hand, substantially the same procedure as mentioned above was repeated, except that 10 μM (final concentration) serotonin was added to the ^3 H-8-OH-DPAT and pargyline. The radioactivity of ^3 H-8-OH-DPAT adsorbed on the filter was determined in the same manner as mentioned above. The obtained value is regarded as the amount (NB) of non-specifically binding ^3 H-8-OH-DPAT.\nFurther, substantially the same procedure as mentioned above was repeated, except that, instead of serotonin, a test compound was used in a predetermined concentration. The radioactivity of ^3 H-8-OH-DPAT adsorbed on the filter was determined in the same manner as mentioned above. The obtained value is regarded as the amount (DTB) of binding ^3 H-8-OH-DPAT.\n(C) Calculation of Ki value\nThe inhibition ratio of the test compound (at a certain concentration) against the binding of 3H-8-OH-DPAT (the inhibition ratio is hereinafter referred to simply as \"binding inhibition ratio\") was calculated according to the following formula:\nBinding inhibition ratio (%)=100-(DTB-NB).div.(TB-NB)×100\nWith respect to each of the test compounds, the binding inhibition ratios at various concentrations (from a higher concentration to a lower concentration) were determined. The binding inhibition ratios were plotted, taking the logarithmic value of the concentration of test compound as the abscissa value, and the binding inhibition ratio as the ordinate value. Then, a curve was drawn by non-linear least square method.\nThe Ki value was determined according to the following formula:\n[L] is the concentration (0.2 nM) of a radioactive ligand (^3 H-8-OH-DPAT) used in the test;"}, "cisplatin-induced emesis": {"tested_on": "cisplatin-induced emesis", "assay": "Suppression of cisplatin-induced emesis in suncus", "type": "in vivo", "conditions": "hydrochloride 0.3 mg/kg intraperitoneal, 30 min before cisplatin 20 mg/kg i.p.", "description": "as §1\nCisplatin was intraperitoneally administered to each of four suncuses (20 mg/kg). As a result, with respect to all of the suncuses, emesis occurred 10 to 20 times within 40 to 70 minutes after the administration of the cisplatin."}, "[2]": {"tested_on": "Suncus murinus (motion sickness emesis)", "assay": "Activities against motion sickness: acceleration-stimulus induced emesis in suncus", "type": "in vivo", "conditions": "1 mg/kg intraperitoneal, 30 min before acceleration-stimulus (4 cm, 1 Hz), observed 10 min; hydrochloride; 4 suncus", "from_the_text": "The activities of individual compounds against motion sickness were examined using Suncus murinus. Suncus murinus is a small animal belonging to the Soricidae family. It has been known that suncus is likely to suffer from motion sickness and is susceptible to occurrence of emesis [see \"Seitai-no-kagaku (Science of living body)\", 41, 538 (1990)]. Suncus is likely to show symptoms like the symptoms of human motion sickness under the stimulus of simple acceleration, finally leading to the occurrence of emesis. It has been recognized that motion sickness is caused by the occurrence of disorder in information, such as vision, equilibrium sense and the like, or by a stimulus which has never been memorized. Further, it has been recognized that the disorder in the inner earvestibular nucleus pathway and the high-order function of brain take part in the occurrence of motion sickness. Therefore, medicines capable of suppressing the occurrence of emesis of suncus would be useful for preventing and treating motion sickness, space sickness, emesis, dizziness and the like.\nIn this test, test compounds were individually administered intraperitoneally to suncus.\nThe time for occurrence of emesis was measured with respect to each of the test compounds, and the results are shown in Table 3."}, "[3]": {"tested_on": "immobile state of rat in forced swimming test", "assay": "Anti-depression activity evaluated by forced swimming test using rats", "type": "in vivo, male Wistar strain rats", "conditions": "hydrochloride; for Time spent in immobile state: 30 min before test, observed 6 min, 6 rats, saline control 236 sec.", "description": "4. Anti-depression activity (which was evaluated by forced swimming test using rats)\nWhen a rat is put in a water tank, the rat struggles for its life to get out of the water (that is, the rat starts a \"forced swimming\"). If the rat finds that it is impossible for him to get out, the rat stops swimming and assumes an immobile state. It has been known that the administration of an antidepressant can cause a violent swimming motion in the rat for getting out of the water, with a result that the time spent in the immobile state is shortened. The shortening of the time in the immobile state of the rat in the forced swimming test by the administration of the antidepressant is well correlated to the clinical anti-depression effect. Accordingly, in developing antidepressants, the forced swimming test using a rat is the most reliable screening method. In the present test, male Wistar strain rats were used. Compound 300 of the present invention (in the form of the hydrochloride thereof) was intraperitoneally administered to a rat. 30 minutes after the administration, the rat was put in a water tank and then, observed for 6 minutes. The time for the rat to keep the immobile state was measured."}, "[4]": {"conditions": "known, background; cited from earlier work"}}}
{"compound": "c1ccc(N2CCN(CCCCOc3cnc4c(n3)CCCC4)CC2)nc1", "note": "[Compound 300, 2-[4-{4-(2-Pyridyl)-1-piperazinyl}butoxy]-5,6,7,8-tetrahydroquinoxaline]", "values": [{"measurement": "occurrence of nicotine-induced emesis", "setting": "nicotine-induced emesis", "value": "completely suppressed"}, {"measurement": "Ki", "setting": "[1]", "value": 1.6, "unit": "nM"}, {"measurement": "occurrence of cisplatin-induced emesis", "setting": "cisplatin-induced emesis", "value": "completely suppressed"}, {"measurement": "Time for occurrence of emesis", "setting": "[2]", "value": "Emesis did not occur"}, {"measurement": "time for the rat to keep the immobile state (in words)", "setting": "[3]; 1 mg/kg and 10 mg/kg", "value": "remarkably shortened"}, {"measurement": "Time spent in immobile state", "setting": "[3]; 1 mg/kg intraperitoneal", "value": 173, "unit": "s"}, {"measurement": "Time spent in immobile state", "setting": "[3]; 10 mg/kg intraperitoneal", "value": 163, "unit": "s"}]}
{"compound": "Cc1nccn1CC1CCc2c(c3ccccc3n2C)C1=O", "note": "(stereo not shown) [ondansetron]", "values": [{"measurement": "effect on emesis induced by drugs other than cisplatin", "setting": "[4]", "value": "no effect"}, {"measurement": "effect on motion sickness", "setting": "[4]", "value": "no effect"}, {"measurement": "suppression of cisplatin-induced emesis", "setting": "[4]", "value": "effective for suppressing cisplatin-induced emesis"}]}
